Assays:
[1] = tested on: chorda tympani nerve of wild-type B6 mice; assay: Chorda tympani whole-nerve responses to lingual taste stimuli, wild-type B6 mice; format: in vivo; conditions: lingual application (FIG. 6B, 7)
Procedure: (§1) Mouse model for sweet property and bitter-masking assay. Recordings of chorda tympani (CT) whole-nerve responses: All protocols involving animals were approved by the Institutional Animal Care and Use Committees at the Monell Center prior to the experiments. The study was performed with mice from two strains: C57BL/6J inbred strain (B6; Jackson Laboratory, Bar Harbor, Me.) bearing the wild-type Tas1r3 allele was used as the control, and the C57BL/6J-Tas1r3^tm1Rjm “gene-knockout” strain (T1R3-KO) lacking the entire T1R3 coding region and devoid of T1R3 protein ([…]., et al., Science, 301: 850-853 (2003)). Afferent signals from taste cells are relayed to the brain via three major gustatory nerves: the chorda tympani, glossopharyngeal, and greater superficial petrosal. […] Neural responses resulting from chemical stimulations of the tongue were fed into an amplifier (Grass Instruments, West Warwick, R.I.) and monitored on an oscilloscope and an audio monitor. Whole-nerve responses were integrated with a time constant of 1.0 s and recorded using a computer for later analysis using a PowerLab system (PowerLab/sp4; AD Instruments, Colorado Springs, Colo.). […] To analyze nerve responses to each stimulus, the magnitudes of integrated responses at 5, 10, 15, 20, and 25 s after stimulus onset were measured and averaged. […]

T1R3 = assay: Chorda tympani whole-nerve responses to lingual taste stimuli, T1R3-KO mice; format: in vivo; conditions: lingual application (FIG. 6A, 7)
Procedure: as §1

[2] = tested on: cultured human fungiform taste papillae cells (HBO cells); assay: Calcium imaging of cultured human fungiform taste papillae (HBO) cells: response frequency, estimation of sweet potency; format: cell-based
Source text: In vitro cell-based assay of sweet property. Establishment and maintenance of cultures of human fungiform taste papillae cells (HBO cells): We previously established the current proprietary protocol (Ozdener, H., et al., Chem. Senses, 31(3): 279-90 (2006); Ozdener, M. H., et al., Chem. Senses, 36(7): 601-12 (2011); Ozdener, H., et al., Isolation and culture of human fungiform taste papillae cells, J. Vis. Exp., 2012 May 17;(63):e3730) which allowed us to culture human fungiform taste papillae cells retaining their physiological and molecular characteristics for more than a year. […] The human fungiform taste papillae cells were cultured according to protocols that we have published (Ozdener et al. 2006, Ozdener et al. 2011). Human fungiform taste papillae were removed and immediately placed into an isolation solution followed by enzymatic digestion. Digested fungiform papillae were then gently minced with a surgical razor and seeded on collagen type-1 coated coverslips and incubated at 36° C. in a humidified environment containing 5% CO2. The fungiform taste papillae cells were cultured in Iscove's Modified Dulbecco's medium containing 10% fetal bovine serum, 1:5 ratio of MCDB (Molecular, Cellular, and Developmental Biology) 153 medium, and a triple cocktail of antibiotics (100 U/mL/100 μg/mL, penicillin/streptomycin, and 0.5 μg/mL fungizone). Culture medium was replaced every 5-7 days by one-third of fresh culture medium. Human fungiform taste papillae cells have been maintained in culture for a period of more than 1 year without loss of viability and with retention of the molecular and biochemical properties of acutely isolated taste cells (Ozdener et al., 2011). Calcium imaging: Cultured taste cells grown for 3-4 days glass coverslips which were loaded for 30-60 min with the calcium sensitive dye fura-2 by incubating the cells in Ringer solution (145 mM NaCl, 5 mM KCl, 1 mM MgCl2, 1 mM CaCl2, 1 mM Na-pyruvate, 20 mM Hepes-Na and Cellobiose 15 mM, pH 7.2 with osmolarity adjusted to 300-310 by 5M NaCl) supplemented with […] (Molecular Probes Inc., Eugene, Oreg.) and 10 mg/ml Pluronic® F127 (Molecular Probes Inc.). Coverslips were then placed in a recording chamber and continuously bathed with Ringer solution superfusion. Stimuli were dissolved in Ringer and then pH and osmolarity readjusted if needed. Cells were exposed to sweet ([…]), bitter mixture (PTC (phenylthiocarbamide)) 2mM+Salicin 5 mM+Denatonium 2 mM), guaifenesin (GF, 3 mM) and acetaminophen (APAP, 3 mM), and various sophorolipids stimuli: sophorose, sophorolipid palmitic acid, sophorolipid stearic acid, sophorolipid oleic acid. […]

Row | SMILES | chorda tympani responses [1] | chorda tympani responses (T1R3) | %-responsive cells ([2]; cultured human taste cells, concentration 5 mM) [%] | Concentration adjusted response frequency ([2]; tested at 5 mM, sucralose 5 mM is the standard)
1 | OC[C@H]1O[C@@](CO)(O[C@H]2O[C@H](CO)[C@@H](O)[C@H](O)[C@H]2O)[C@@H](O)[C@@H]1O [sucrose] | present | nearly absent | – | –
2 | OC[C@H]1O[C@H](O[C@]2(CCl)O[C@H](CCl)[C@@H](O)[C@@H]2O)[C@H](O)[C@@H](O)[C@H]1Cl [Sucralose, sucralose] | – | – | 16.67 | 16.67

From patent publication US10799590B2, “Compositions containing a bitter tastant and at least one sophorolipid, and methods of reducing bitter taste attributed to a bitter tastant in an edible composition” (The United States of America, as Represented by the …, priority 2015, dated 2020)
